Legend:
Format in all cases: in vivo
Setaria viridis (SETVI) [1] = experiment: Post-emergence herbicidal action against SETVI
Outline: (§1)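 Post-emergence greenhouse spray, one-leaf stage, 600 l/ha water plus 0.5% additive; WP or EC formulations; application rates 320 g/ha or lower. Visual % damage vs untreated controls at ~3 weeks.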

Lolium rigidum (LOLRI) [2] = experiment: Pre-emergence herbicidal action against LOLRI
Outline: (§2)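 Application rates ran to 320 g/ha or lower, with several dosages tested on the same weeds. The compound, as wettable powder or emulsion concentrate, is sprayed pre-emergence onto soil over sown seeds; greenhouse growth follows, and effect is rated visually after roughly 3 weeks.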

[3] = test system: Amaranthus retroflexus (AMARE); experiment: Pre-emergence herbicidal action against AMARE; conditions: visual scoring after about 3 weeks vs untreated controls
Outline: as §2

[4] = test system: Alopecurus myosuroides (ALOMY); experiment: Pre-emergence herbicidal action against ALOMY; conditions: scored visually after about 3 weeks, 100% = plants have died
Outline: as §2

[5] = test system: Verconica persica (VERPE); experiment: Pre-emergence herbicidal action against VERPE
Outline: as §2

[6] = test system: Alopecurus myosuroides (ALOMY); experiment: Post-emergence herbicidal action against ALOMY; conditions: visual rating about 3 weeks after treatment vs untreated controls (100% = plants have died, 0% = like control plants)
Outline: as §1

Avena fatua (AVEFA) [7] = experiment: Pre-emergence herbicidal action against AVEFA; conditions: 320 g/ha, visual scoring after about 3 weeks vs untreated controls
Outline: as §2

[8] = test system: Polygonum convolvulus (POLCO); experiment: Pre-emergence herbicidal action against POLCO
Outline: as §2

[9] = test system: Echinochloa crus-galli (ECHCG); experiment: Pre-emergence herbicidal action against ECHCG
Outline: as §2

[10] = test system: Echinochloa crus-galli (ECHCG); experiment: Post-emergence herbicidal action against ECHCG
Outline: as §1

Viola tricolor (VIOTR) [11] = experiment: Pre-emergence herbicidal action against VIOTR
Outline: as §2

Avena fatua (AVEFA) [12] = experiment: Post-emergence herbicidal action against AVEFA; conditions: 320 g/ha, visual rating about 3 weeks after treatment
Outline: as §1

[13] = test system: Verconica persica (VERPE); experiment: Post-emergence herbicidal action against VERPE
Outline: as §1

[14] = test system: Matricaria inodora (MATIN); experiment: Post-emergence herbicidal action against MATIN; conditions: dosage 320 g/ha
Outline: as §1

Lolium rigidum (LOLRI) [15] = experiment: Post-emergence herbicidal action against LOLRI
Outline: as §1

[16] = test system: Amaranthus retroflexus (AMARE); experiment: Post-emergence herbicidal action against AMARE; conditions: 320 g/ha, visual rating about 3 weeks after treatment
Outline: as §1

[17] = test system: Polygonum convolvulus (POLCO); experiment: Post-emergence herbicidal action against POLCO; conditions: dosage 320 g/ha
Outline: as §1

Viola tricolor (VIOTR) [18] = experiment: Post-emergence herbicidal action against VIOTR
Outline: as §1

Setaria viridis (SETVI) [19] = experiment: Pre-emergence herbicidal action against SETVI
Outline: as §2

[20] = test system: Abutilon theophrasti (ABUTH); experiment: Post-emergence herbicidal action against ABUTH; conditions: visual rating about 3 weeks after treatment vs untreated controls (100% = plants have died, 0% = like control plants)
Outline: as §1

[21] = test system: Matricaria inodora (MATIN); experiment: Pre-emergence herbicidal action against MATIN
Outline: as §2

[22] = test system: Pharbitis purpurea (PHBPU); experiment: Pre-emergence herbicidal action against PHBPU
Outline: as §2

[23] = test system: Abutilon theophrasti (ABUTH); experiment: Pre-emergence herbicidal action against ABUTH; conditions: 100% = plants have died
Outline: as §2

Oryza sativa (ORYSA) = conditions: crop plant compatibility, 80 g/ha, effect in comparison to untreated controls
Outline: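 Test crops were treated 2 to 3 weeks after sowing, once they reached one leaf, by spraying compound in water with 0.5% additive at 600 l/ha. Visual scoring compared them with untreated controls roughly 3 weeks on, and appendices a, b and c denote different doses.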

[24] = Dosage column 320 g/ha (title prints 3200 g/ha), scored visually after about 3 weeks

Compound	Post-emergence action against SETVI in % (Setaria viridis (SETVI) [1]; dosage 320 g/ha) [%]	Pre-emergence action against LOLRI in % (Lolium rigidum (LOLRI) [2]; dosage 80 g/ha) [%]	Pre-emergence action against LOLRI in % (Lolium rigidum (LOLRI) [2]; dosage 320 g/ha) [%]	Pre-emergence action against AMARE in % ([3]; 80 g/ha) [%]	Pre-emergence action against AMARE in % ([3]; 320 g/ha) [%]	Pre-emergence action against ALOMY ([4]; 80 g/ha) [%]	Pre-emergence action against ALOMY ([4]; 320 g/ha) [%]	Pre-emergence action against VERPE in % ([5]; dosage 320 g/ha) [%]	Post-emergence action against ALOMY in % ([6]; 320 g/ha) [%]	Pre-emergence action against AVEFA in % (Avena fatua (AVEFA) [7]) [%]	Pre-emergence action against POLCO in % ([8]; dosage 320 g/ha) [%]	Pre-emergence action against ECHCG in % ([9]; dosage 80 g/ha) [%]	Pre-emergence action against ECHCG in % ([9]; dosage 320 g/ha) [%]	Post-emergence action against ECHCG in % ([10]; dosage 80 g/ha) [%]	Post-emergence action against ECHCG in % ([10]; dosage 320 g/ha) [%]	Pre-emergence action against VIOTR in % (Viola tricolor (VIOTR) [11]; 320 g/ha, Viola tricolor) [%]	Pre-emergence action against VIOTR in % (Viola tricolor (VIOTR) [11]; dosage 80 g/ha) [%]	Post-emergence action against AVEFA in % (Avena fatua (AVEFA) [12]) [%]	Post-emergence action against VERPE in % ([13]; 320 g/ha, VERPE) [%]	Post-emergence action against MATIN in % [14] [%]	other results
CCOC(=O)COc1nn(-c2ccccn2)c(-c2ccc(F)nc2)c1Br [Example I-86]	100	100	100	100	100	100	100	90	100	90	100	100	100	100	100	100	80	100	80	80	Post-emergence action against SETVI in % (Setaria viridis (SETVI) [1]; dosage 80 g/ha): 100%; Post-emergence action against ALOMY in % ([6]; 80 g/ha): 100%; Post-emergence action against LOLRI in % (Lolium rigidum (LOLRI) [15]; dosage 80 g/ha): 100%; Post-emergence action against LOLRI in % (Lolium rigidum (LOLRI) [15]; dosage 320 g/ha): 100%; Post-emergence action against AMARE in % [16]: 90%; Post-emergence action against POLCO in % [17]: 90%; Post-emergence action against VIOTR in % (Viola tricolor (VIOTR) [18]; 80 g/ha): 80%; Post-emergence action against VIOTR in % (Viola tricolor (VIOTR) [18]; 320 g/ha): 90%; Pre-emergence action against SETVI in % (Setaria viridis (SETVI) [19]; dosage 80 g/ha): 100%; Pre-emergence action against SETVI in % (Setaria viridis (SETVI) [19]; dosage 320 g/ha): 100%; Post-emergence action against ABUTH in % ([20]; 80 g/ha): 90%; Post-emergence action against ABUTH in % ([20]; 320 g/ha): 90%; Pre-emergence action against MATIN in % ([21]; dosage 320 g/ha): 100%; Pre-emergence action against PHBPU in % ([22]; dosage 320 g/ha): 90%; Pre-emergence action against ABUTH ([23]; 80 g/ha, scored visually after about 3 weeks vs untreated controls, 0% = like control plants): 80%; Pre-emergence action against ABUTH [23, 24]: 100%
COC(=O)CNC(=O)[C@@H](C)Oc1nn(-c2ccccn2)c(-c2cncc(F)c2)c1Cl [Example I-185]	80	100	100	100	100	80	90	90	80	90	90	80	90	80	90	100	100	80	80	80	Pre-emergence action against VERPE in % ([5]; dosage 80 g/ha): 80%; Pre-emergence action against POLCO in % ([8]; dosage 80 g/ha): 80%; Post-emergence action against VERPE in % ([13]; dosage 80 g/ha): 80%; Post-emergence action against LOLRI in % (Lolium rigidum (LOLRI) [15]; dosage 80 g/ha): 80%; Post-emergence action against LOLRI in % (Lolium rigidum (LOLRI) [15]; dosage 320 g/ha): 80%; Post-emergence action against AMARE in % [16]: 80%; Post-emergence action against ORYSA in % (Oryza sativa (ORYSA)): 20%; Post-emergence action against POLCO in % [17]: 80%; Post-emergence action against VIOTR in % (Viola tricolor (VIOTR) [18]; 80 g/ha): 80%; Post-emergence action against VIOTR in % (Viola tricolor (VIOTR) [18]; 320 g/ha): 80%; Pre-emergence action against SETVI in % (Setaria viridis (SETVI) [19]; dosage 80 g/ha): 80%; Pre-emergence action against SETVI in % (Setaria viridis (SETVI) [19]; dosage 320 g/ha): 100%; Post-emergence action against ABUTH in % ([20]; 80 g/ha): 80%; Post-emergence action against ABUTH in % ([20]; 320 g/ha): 80%; Pre-emergence action against MATIN in % ([21]; dosage 80 g/ha): 80%; Pre-emergence action against MATIN in % ([21]; dosage 320 g/ha): 90%; Pre-emergence action against PHBPU in % ([22]; dosage 80 g/ha): 80%; Pre-emergence action against PHBPU in % ([22]; dosage 320 g/ha): 90%; Pre-emergence action against ABUTH [23, 24]: 80%
